Experimental data as given in ChEMBL document CHEMBL5442219.

Columns and labels:
Conditions in all cases: Compound concentration 10 µM
[1] = target: D(1A) dopamine receptor (Homo sapiens) (UniProt P21728)
Description: PDSP Primary Binding target: DRD1 - Compounds are tested at 10 uM concentration, plate are incubated at room temperature in the dark for 90 minutes. Reaction are stopped by vacuum filtration onto 0.3% polyethyleneimine soaked filter mats using Filtermate harvester. Scintilation cocktail is then melted onto microwave-dried filters on a hot plate and the radio activity is counted in Microbia counter.

[2] = target: T1, Muscarinic acetylcholine receptor M4 (Homo sapiens) (UniProt P08173)
T1 sequence (whole entry): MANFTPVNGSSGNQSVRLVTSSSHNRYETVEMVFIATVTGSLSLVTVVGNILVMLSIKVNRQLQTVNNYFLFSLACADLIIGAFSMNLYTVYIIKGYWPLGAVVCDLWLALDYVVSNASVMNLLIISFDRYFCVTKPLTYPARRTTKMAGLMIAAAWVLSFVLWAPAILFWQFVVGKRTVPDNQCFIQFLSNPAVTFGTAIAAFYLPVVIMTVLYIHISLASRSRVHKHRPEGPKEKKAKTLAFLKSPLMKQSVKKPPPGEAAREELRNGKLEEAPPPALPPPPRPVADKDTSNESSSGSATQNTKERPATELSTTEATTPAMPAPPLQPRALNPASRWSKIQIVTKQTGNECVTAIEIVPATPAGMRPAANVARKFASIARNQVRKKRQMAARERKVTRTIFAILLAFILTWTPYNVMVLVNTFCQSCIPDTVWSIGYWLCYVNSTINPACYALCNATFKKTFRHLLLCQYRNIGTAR
Description: PDSP Primary Binding target: CHRM4 - Compounds are tested at 10 uM concentration, plate are incubated at room temperature in the dark for 90 minutes. Reaction are stopped by vacuum filtration onto 0.3% polyethyleneimine soaked filter mats using Filtermate harvester. Scintilation cocktail is then melted onto microwave-dried filters on a hot plate and the radio activity is counted in Microbia counter.

[3] = target: T2, Alpha-2A adrenergic receptor (Homo sapiens) (UniProt P08913)
T2 sequence (whole entry): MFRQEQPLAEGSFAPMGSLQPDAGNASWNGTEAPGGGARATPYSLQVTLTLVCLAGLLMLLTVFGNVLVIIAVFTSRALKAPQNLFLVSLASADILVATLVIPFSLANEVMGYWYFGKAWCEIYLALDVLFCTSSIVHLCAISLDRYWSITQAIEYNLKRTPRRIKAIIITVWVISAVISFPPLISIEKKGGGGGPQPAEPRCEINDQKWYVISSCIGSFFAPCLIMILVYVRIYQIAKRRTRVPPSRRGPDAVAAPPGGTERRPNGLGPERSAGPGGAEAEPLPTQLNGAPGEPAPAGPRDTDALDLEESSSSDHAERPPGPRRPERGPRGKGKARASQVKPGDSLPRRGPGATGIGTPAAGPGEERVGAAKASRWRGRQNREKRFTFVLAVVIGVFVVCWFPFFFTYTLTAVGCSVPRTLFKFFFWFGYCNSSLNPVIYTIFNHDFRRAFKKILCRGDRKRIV
Description: PDSP Primary Binding target: ADRA2A - Compounds are tested at 10 uM concentration, plate are incubated at room temperature in the dark for 90 minutes. Reaction are stopped by vacuum filtration onto 0.3% polyethyleneimine soaked filter mats using Filtermate harvester. Scintilation cocktail is then melted onto microwave-dried filters on a hot plate and the radio activity is counted in Microbia counter.

[4] = target: 5-hydroxytryptamine receptor 1E (Homo sapiens) (UniProt P28566)
Description: PDSP Primary Binding target: HTR1E - Compounds are tested at 10 uM concentration, plate are incubated at room temperature in the dark for 90 minutes. Reaction are stopped by vacuum filtration onto 0.3% polyethyleneimine soaked filter mats using Filtermate harvester. Scintilation cocktail is then melted onto microwave-dried filters on a hot plate and the radio activity is counted in Microbia counter.

[5] = target: D(2) dopamine receptor (Homo sapiens) (UniProt P14416)
Description: PDSP Primary Binding target: DRD2 - Compounds are tested at 10 uM concentration, plate are incubated at room temperature in the dark for 90 minutes. Reaction are stopped by vacuum filtration onto 0.3% polyethyleneimine soaked filter mats using Filtermate harvester. Scintilation cocktail is then melted onto microwave-dried filters on a hot plate and the radio activity is counted in Microbia counter.

[6] = target: Sigma non-opioid intracellular receptor 1 (Homo sapiens) (UniProt Q99720)
Description: PDSP Primary Binding target: SIGMAR1 - Compounds are tested at 10 uM concentration, plate are incubated at room temperature in the dark for 90 minutes. Reaction are stopped by vacuum filtration onto 0.3% polyethyleneimine soaked filter mats using Filtermate harvester. Scintilation cocktail is then melted onto microwave-dried filters on a hot plate and the radio activity is counted in Microbia counter.

[7] = target: T3, 5-hydroxytryptamine receptor 3A (Homo sapiens) (UniProt P46098)
T3 sequence (whole entry): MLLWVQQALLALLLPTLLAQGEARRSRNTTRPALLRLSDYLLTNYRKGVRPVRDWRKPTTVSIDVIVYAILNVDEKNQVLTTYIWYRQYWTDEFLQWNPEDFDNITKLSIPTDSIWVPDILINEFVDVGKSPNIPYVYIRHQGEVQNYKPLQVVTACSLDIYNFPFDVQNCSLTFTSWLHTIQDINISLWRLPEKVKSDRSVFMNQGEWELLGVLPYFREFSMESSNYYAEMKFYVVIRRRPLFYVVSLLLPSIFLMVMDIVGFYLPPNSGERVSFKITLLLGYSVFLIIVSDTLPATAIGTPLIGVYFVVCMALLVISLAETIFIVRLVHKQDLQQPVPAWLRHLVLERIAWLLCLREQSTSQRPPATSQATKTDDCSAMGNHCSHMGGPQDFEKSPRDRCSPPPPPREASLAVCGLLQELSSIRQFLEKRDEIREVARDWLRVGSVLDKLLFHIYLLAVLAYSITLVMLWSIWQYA
Description: PDSP Primary Binding target: HTR3A - Compounds are tested at 10 uM concentration, plate are incubated at room temperature in the dark for 90 minutes. Reaction are stopped by vacuum filtration onto 0.3% polyethyleneimine soaked filter mats using Filtermate harvester. Scintilation cocktail is then melted onto microwave-dried filters on a hot plate and the radio activity is counted in Microbia counter.

[8] = target: Sodium-dependent noradrenaline transporter (Homo sapiens) (UniProt P23975)
Description: PDSP Primary Binding target: SLC6A2 - Compounds are tested at 10 uM concentration, plate are incubated at room temperature in the dark for 90 minutes. Reaction are stopped by vacuum filtration onto 0.3% polyethyleneimine soaked filter mats using Filtermate harvester. Scintilation cocktail is then melted onto microwave-dried filters on a hot plate and the radio activity is counted in Microbia counter.

[9] = target: Sodium-dependent dopamine transporter (Homo sapiens) (UniProt Q01959)
Description: PDSP Primary Binding target: SLC6A3 - Compounds are tested at 10 uM concentration, plate are incubated at room temperature in the dark for 90 minutes. Reaction are stopped by vacuum filtration onto 0.3% polyethyleneimine soaked filter mats using Filtermate harvester. Scintilation cocktail is then melted onto microwave-dried filters on a hot plate and the radio activity is counted in Microbia counter.

[10] = target: 5-hydroxytryptamine receptor 5A (Homo sapiens) (UniProt P47898)
Description: PDSP Primary Binding target: HTR5A - Compounds are tested at 10 uM concentration, plate are incubated at room temperature in the dark for 90 minutes. Reaction are stopped by vacuum filtration onto 0.3% polyethyleneimine soaked filter mats using Filtermate harvester. Scintilation cocktail is then melted onto microwave-dried filters on a hot plate and the radio activity is counted in Microbia counter.

[11] = target: T4, Alpha-1B adrenergic receptor (Homo sapiens) (UniProt P35368)
T4 sequence (whole entry): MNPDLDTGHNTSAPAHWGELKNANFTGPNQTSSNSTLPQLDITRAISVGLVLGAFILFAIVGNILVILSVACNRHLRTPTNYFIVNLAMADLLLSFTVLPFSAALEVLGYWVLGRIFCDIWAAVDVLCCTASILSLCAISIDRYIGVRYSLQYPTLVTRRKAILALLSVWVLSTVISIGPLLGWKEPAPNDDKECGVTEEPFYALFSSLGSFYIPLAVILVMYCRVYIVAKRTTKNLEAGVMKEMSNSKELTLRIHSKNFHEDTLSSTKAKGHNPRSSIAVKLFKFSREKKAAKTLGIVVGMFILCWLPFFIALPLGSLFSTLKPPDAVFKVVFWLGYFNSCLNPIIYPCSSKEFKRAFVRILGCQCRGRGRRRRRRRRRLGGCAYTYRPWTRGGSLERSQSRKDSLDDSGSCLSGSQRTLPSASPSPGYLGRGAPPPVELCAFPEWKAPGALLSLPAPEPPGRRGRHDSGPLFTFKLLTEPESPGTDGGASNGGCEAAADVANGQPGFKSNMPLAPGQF
Description: PDSP Primary Binding target: ADRA1B - Compounds are tested at 10 uM concentration, plate are incubated at room temperature in the dark for 90 minutes. Reaction are stopped by vacuum filtration onto 0.3% polyethyleneimine soaked filter mats using Filtermate harvester. Scintilation cocktail is then melted onto microwave-dried filters on a hot plate and the radio activity is counted in Microbia counter.

[12] = target: Translocator protein (Homo sapiens) (UniProt P30536)
Description: PDSP Primary Binding target: TSPO - Compounds are tested at 10 uM concentration, plate are incubated at room temperature in the dark for 90 minutes. Reaction are stopped by vacuum filtration onto 0.3% polyethyleneimine soaked filter mats using Filtermate harvester. Scintilation cocktail is then melted onto microwave-dried filters on a hot plate and the radio activity is counted in Microbia counter.

[13] = target: Sodium-dependent serotonin transporter (Homo sapiens) (UniProt P31645)
Description: PDSP Primary Binding target: SLC6A4 - Compounds are tested at 10 uM concentration, plate are incubated at room temperature in the dark for 90 minutes. Reaction are stopped by vacuum filtration onto 0.3% polyethyleneimine soaked filter mats using Filtermate harvester. Scintilation cocktail is then melted onto microwave-dried filters on a hot plate and the radio activity is counted in Microbia counter.

[14] = target: Histamine H1 receptor (Homo sapiens) (UniProt P35367)
Histamine H1 receptor (Homo sapiens), sequence (P35367 whole entry): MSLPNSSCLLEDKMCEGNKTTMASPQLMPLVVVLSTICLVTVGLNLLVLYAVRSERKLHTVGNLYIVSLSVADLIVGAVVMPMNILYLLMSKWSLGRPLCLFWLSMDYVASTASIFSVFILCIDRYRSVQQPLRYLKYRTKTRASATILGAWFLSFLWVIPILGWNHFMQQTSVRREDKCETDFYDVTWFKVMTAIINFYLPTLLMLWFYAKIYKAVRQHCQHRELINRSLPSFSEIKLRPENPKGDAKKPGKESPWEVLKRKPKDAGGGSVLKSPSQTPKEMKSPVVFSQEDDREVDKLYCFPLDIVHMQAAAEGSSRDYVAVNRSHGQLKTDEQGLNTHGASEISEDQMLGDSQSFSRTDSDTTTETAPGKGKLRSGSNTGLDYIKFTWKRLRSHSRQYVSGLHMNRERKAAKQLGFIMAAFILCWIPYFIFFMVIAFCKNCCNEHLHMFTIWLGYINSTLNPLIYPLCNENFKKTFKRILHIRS
Description: PDSP Primary Binding target: HRH1 - Compounds are tested at 10 uM concentration, plate are incubated at room temperature in the dark for 90 minutes. Reaction are stopped by vacuum filtration onto 0.3% polyethyleneimine soaked filter mats using Filtermate harvester. Scintilation cocktail is then melted onto microwave-dried filters on a hot plate and the radio activity is counted in Microbia counter.

5-hydroxytryptamine receptor 1E (Homo sapiens), sequence (P28566 whole entry): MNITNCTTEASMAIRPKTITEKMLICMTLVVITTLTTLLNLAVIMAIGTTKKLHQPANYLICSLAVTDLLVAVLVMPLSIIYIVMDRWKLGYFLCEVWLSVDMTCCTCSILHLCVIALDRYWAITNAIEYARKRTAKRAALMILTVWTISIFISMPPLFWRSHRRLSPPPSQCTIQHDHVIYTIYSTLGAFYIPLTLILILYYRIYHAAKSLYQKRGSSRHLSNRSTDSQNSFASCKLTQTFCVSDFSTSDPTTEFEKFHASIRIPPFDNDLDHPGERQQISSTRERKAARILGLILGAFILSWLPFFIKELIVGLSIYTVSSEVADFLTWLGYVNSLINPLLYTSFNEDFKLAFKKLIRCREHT
Sodium-dependent dopamine transporter (Homo sapiens), sequence (Q01959 whole entry): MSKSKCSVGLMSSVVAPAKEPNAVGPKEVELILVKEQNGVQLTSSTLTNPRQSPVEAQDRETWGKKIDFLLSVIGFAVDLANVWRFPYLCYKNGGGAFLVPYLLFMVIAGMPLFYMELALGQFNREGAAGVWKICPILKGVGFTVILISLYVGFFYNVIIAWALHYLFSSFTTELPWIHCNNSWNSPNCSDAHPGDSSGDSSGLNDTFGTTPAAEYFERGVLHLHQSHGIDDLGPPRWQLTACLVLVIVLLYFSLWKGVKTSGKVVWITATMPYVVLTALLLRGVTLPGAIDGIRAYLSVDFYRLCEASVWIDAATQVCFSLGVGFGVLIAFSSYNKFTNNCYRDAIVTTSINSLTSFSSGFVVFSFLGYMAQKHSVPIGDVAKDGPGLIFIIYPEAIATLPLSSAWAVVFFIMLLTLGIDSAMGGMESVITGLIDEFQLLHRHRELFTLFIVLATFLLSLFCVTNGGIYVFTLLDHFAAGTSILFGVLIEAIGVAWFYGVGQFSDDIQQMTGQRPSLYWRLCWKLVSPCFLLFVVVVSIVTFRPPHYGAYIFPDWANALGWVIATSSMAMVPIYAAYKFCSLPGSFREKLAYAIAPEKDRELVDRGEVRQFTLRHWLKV
Sodium-dependent noradrenaline transporter (Homo sapiens), sequence (P23975 whole entry): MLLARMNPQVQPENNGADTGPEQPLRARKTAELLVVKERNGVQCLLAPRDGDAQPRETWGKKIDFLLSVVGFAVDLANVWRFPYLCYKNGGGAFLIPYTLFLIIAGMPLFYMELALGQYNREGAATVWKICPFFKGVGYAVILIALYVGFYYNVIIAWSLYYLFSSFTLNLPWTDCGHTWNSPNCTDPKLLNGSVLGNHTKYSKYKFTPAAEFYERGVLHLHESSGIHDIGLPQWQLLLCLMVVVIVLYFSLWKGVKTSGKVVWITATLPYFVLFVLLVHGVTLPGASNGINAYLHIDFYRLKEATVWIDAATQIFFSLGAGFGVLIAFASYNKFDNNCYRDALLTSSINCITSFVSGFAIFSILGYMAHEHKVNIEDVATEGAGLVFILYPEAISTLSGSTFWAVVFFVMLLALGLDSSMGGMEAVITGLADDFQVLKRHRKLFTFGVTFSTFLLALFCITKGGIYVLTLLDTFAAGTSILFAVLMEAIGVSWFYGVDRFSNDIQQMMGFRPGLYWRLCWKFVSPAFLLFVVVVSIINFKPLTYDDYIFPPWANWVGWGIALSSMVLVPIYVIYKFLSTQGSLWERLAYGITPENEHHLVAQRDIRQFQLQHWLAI
Sodium-dependent serotonin transporter (Homo sapiens), sequence (P31645 whole entry, looked up): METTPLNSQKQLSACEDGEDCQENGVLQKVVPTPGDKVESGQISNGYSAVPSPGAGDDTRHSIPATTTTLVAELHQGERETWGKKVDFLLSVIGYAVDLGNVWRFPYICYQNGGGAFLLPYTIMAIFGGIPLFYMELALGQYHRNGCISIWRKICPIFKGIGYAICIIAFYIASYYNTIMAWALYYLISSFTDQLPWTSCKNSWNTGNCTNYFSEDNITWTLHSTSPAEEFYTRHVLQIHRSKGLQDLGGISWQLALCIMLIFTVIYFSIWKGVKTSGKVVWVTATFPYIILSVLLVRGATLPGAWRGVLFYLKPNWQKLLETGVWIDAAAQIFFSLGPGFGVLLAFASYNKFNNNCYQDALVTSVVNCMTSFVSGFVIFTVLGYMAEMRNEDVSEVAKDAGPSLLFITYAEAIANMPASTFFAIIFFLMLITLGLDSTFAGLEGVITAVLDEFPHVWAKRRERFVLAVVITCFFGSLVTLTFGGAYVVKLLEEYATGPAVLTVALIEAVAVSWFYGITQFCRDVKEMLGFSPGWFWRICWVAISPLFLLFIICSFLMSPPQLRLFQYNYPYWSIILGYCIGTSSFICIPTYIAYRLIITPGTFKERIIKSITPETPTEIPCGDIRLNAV
D(1A) dopamine receptor (Homo sapiens), sequence (P21728 whole entry): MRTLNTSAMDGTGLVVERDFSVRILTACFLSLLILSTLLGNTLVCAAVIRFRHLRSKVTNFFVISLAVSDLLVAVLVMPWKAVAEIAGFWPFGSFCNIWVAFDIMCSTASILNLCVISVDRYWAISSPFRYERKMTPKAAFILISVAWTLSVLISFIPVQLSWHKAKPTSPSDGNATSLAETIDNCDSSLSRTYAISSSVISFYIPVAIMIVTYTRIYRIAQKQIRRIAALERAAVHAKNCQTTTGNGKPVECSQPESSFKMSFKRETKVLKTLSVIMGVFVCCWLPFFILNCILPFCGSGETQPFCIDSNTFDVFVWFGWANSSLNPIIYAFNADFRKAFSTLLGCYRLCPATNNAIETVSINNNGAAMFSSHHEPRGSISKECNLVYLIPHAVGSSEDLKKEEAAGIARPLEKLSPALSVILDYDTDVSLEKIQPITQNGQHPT
D(2) dopamine receptor (Homo sapiens), sequence (P14416 whole entry): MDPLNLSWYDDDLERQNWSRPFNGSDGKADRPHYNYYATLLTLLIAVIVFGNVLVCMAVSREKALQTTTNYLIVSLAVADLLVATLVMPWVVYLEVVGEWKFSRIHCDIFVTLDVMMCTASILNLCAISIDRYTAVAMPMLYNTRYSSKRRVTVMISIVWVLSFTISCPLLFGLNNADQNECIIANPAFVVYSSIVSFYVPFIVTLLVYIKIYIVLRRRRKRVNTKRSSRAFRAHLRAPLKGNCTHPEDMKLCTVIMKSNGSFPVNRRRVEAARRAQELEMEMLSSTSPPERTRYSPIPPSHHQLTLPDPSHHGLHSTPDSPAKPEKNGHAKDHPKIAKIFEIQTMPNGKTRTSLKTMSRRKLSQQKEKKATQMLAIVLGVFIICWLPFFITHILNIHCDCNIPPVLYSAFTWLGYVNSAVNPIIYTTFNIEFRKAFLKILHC
Translocator protein (Homo sapiens), sequence (P30536 whole entry): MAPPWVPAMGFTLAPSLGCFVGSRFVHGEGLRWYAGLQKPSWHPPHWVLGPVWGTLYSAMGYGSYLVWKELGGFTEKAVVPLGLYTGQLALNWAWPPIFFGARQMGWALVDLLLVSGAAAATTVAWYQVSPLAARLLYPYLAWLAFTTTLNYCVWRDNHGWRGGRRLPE
Sigma non-opioid intracellular receptor 1 (Homo sapiens), sequence (Q99720 whole entry): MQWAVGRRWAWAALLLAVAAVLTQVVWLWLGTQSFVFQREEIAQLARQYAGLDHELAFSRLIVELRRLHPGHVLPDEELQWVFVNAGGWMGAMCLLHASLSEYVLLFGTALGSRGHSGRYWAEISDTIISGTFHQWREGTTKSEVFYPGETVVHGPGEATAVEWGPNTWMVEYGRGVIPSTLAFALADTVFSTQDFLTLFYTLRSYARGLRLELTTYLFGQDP
5-hydroxytryptamine receptor 5A (Homo sapiens), sequence (P47898 whole entry): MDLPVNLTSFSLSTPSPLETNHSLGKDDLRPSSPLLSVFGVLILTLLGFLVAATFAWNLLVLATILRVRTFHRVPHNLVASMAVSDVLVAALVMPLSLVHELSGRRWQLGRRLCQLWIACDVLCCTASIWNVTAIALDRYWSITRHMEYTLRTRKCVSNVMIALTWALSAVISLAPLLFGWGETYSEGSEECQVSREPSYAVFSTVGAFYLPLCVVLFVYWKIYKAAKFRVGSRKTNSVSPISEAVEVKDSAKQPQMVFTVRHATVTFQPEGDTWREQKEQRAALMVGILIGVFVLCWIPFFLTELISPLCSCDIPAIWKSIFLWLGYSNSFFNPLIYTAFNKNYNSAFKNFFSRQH

Row | Compound | inhibition [1] [%] | inhibition [2] [%] | inhibition [3] [%] | inhibition [4] [%] | inhibition [5] [%] | inhibition [6] [%] | inhibition [7] [%] | inhibition [8] [%] | inhibition [9] [%] | inhibition [10] [%] | inhibition [11] [%] | inhibition [12] [%] | inhibition [13] [%] | inhibition [14] [%]
1 | CC(C)NCC(O)COc1cccc2ccccc12 (stereo unspecified) | 4.93 | -3.37 | 16.4 | 3.24 | 17.7 | 54.7 | 8.73 | 46.2 | 38.4 | -2.95 | – | – | – | –
2 | CCCCc1nc(Cl)c(CO)n1Cc1ccc(-c2ccccc2-c2nnn[nH]2)cc1 | 10.3 | -5.3 | 6.2 | 7.06 | 23.9 | 9.91 | -6.45 | 11.8 | – | 16.9 | -2.24 | 5.8 | – | –
3 | S=C(NCCCc1c[nH]cn1)NCCCN(Cc1ccc(Cl)c(Cl)c1)c1ccc(Br)cn1 | 61.5 | – | 97.5 | 7.46 | 17.1 | 1.54 | 33.5 | 94.1 | 94.8 | 96.7 | 89.3 | 30.9 | 95 | 83
4 | O=C(Cc1ccc(Cl)c(Cl)c1)N1CCCC[C@H]1CN1CCCC1 | – | 16.7 | 30.3 | 1.08 | 44.5 | 94.7 | 5.92 | 23.7 | 52.7 | – | 11.4 | 8.29 | 33.9 | 23.8
5 | COc1cccc([C@H](O)C2CCN(CCc3ccc(F)cc3)CC2)c1OC | 63.9 | – | 33.1 | -0.41 | 4.57 | 3.05 | 9.53 | 45.2 | 15.6 | 16.8 | 57.3 | -6.18 | 27.2 | 92.9
6 | CC(C)(C)NC[C@H](O)COc1nsnc1N1CCOCC1 | – | -8.25 | 11.8 | 7.32 | 6.14 | 90.3 | – | – | 31.4 | – | -6.31 | 0.37 | – | –
7 | C=CCN1C[C@H](C)N([C@H](c2ccc(C(=O)N(CC)CC)cc2)c2cccc(O)c2)C[C@H]1C | 2.02 | -5.52 | 17.8 | 19.5 | -2.85 | 87.3 | 10 | 13 | 26.9 | – | 10.2 | 20.7 | 13.7 | 8.35
8 | O=C(c1cc2c(cc1F)OC(c1ccc(F)cc1)(c1ccc(Cl)cc1Cl)O2)N1CCOCC1 (stereo unspecified) | 48 | – | 18.1 | 19.9 | 5.49 | 48.5 | 1.36 | 52 | 59 | -2.04 | – | 49.3 | 15.9 | 15.4
9 | CN(C)C(=O)C(CCN1CCC(O)(c2ccc(Cl)cc2)CC1)(c1ccccc1)c1ccccc1 | 2.24 | -6.62 | 47.1 | 18.4 | 16.2 | 87.2 | – | 25.8 | 64.3 | 23.2 | 52.4 | 50 | – | –
10 | N=C(N)SCCc1c[nH]cn1 | – | – | 51.5 | 26.2 | -5.28 | 13.1 | 45.7 | 11.5 | -0.41 | -5.14 | -9.87 | 5.09 | – | 6.96
11 | CCN(CC)CCCCC1CCN(CC(=O)N2c3ccccc3C(=O)Nc3cccnc32)CC1 | 102 | 95.5 | 12.9 | – | 2.83 | – | 3.5 | 15.3 | 28.1 | – | -0.95 | -2.79 | – | -7.08
12 | Nc1nc(NCCc2ccc(O)cc2)nc2nc(-c3ccco3)nn12 | -2.49 | – | 19 | – | 40 | 43.4 | 1.4 | 44.1 | 23.6 | – | 2.08 | 22.4 | -5.81 | –
13 | COc1cc2c(CCNC(C)=O)c[nH]c2cc1Cl | 5.8 | – | 13.4 | 16.3 | -7.31 | 5.27 | – | – | 14.1 | – | – | 20.1 | – | 3.86
14 | C[C@@H](N)Cc1c[nH]cn1 | 14.2 | – | 8.47 | 14.9 | -4.88 | 20.9 | 5.88 | -7.81 | 3.36 | -3.48 | – | – | 6.49 | 8.33
15 | Cc1cccc(NC(=O)N[C@@H]2N=C(c3ccccc3)c3ccccc3N(C)C2=O)c1 | – | -5.23 | 13.9 | 18.6 | 14.2 | 20.8 | -5.37 | 1.83 | 44.1 | – | – | 27.5 | – | 12.5
16 | CCCn1c(=O)c2[nH]c(-c3cnn(Cc4cccc(C(F)(F)F)c4)c3)nc2n(CC)c1=O | 5.66 | – | 10.9 | -4 | 32.5 | 43.2 | -4.02 | 25.1 | 45.8 | – | -5.87 | 14.7 | – | -0.63
17 | Cc1cccc([C@H](C)c2c[nH]cn2)c1C | -3.69 | – | 104 | -0.76 | 14.4 | 1.54 | 13.3 | 50.9 | 39.2 | -0.76 | 54.8 | -0.25 | -4.26 | –
